Earlier results in patent publication US20060269582A1, “Arthropod repellent comprising extracts and/or parts of the plant vitex agnus-castus” (Alpha-Biocare GmbH, priority 2002, published 2006).

Legend:
[1] = system: ticks and mites; details: state of the art
[2] = system: ticks; details: state of the art

Compound	efficiency / activity against ticks and mites [1]	activity against ticks [2]	duration of protection against ticks [2]
CC1=C(C=O)C(CC=O)CC1 (stereo not shown) [2-(2-formyl-3-methyl-cyclopent-2-enyl)acetaldehyde]	low or even not there	–	–
CCC(C)OC(=O)N1CCCCC1CCO (stereo not shown) [Bayrepel]	–	poor	about two
CCN(CC)C(=O)c1cccc(C)c1 [DEET, N,N-diethyl-m-toluamide]	low efficiency	–	–
